{"source": "patent US8980925B2", "about": "“Antimicrobial amphiphiles and methods for their use” (James Madison Innovations, Inc., priority 2010, dated 2015)", "key": {"[1]": {"test_system": "Pseudomonas aeruginosa strain Boston 41501 ATCC® 27853™", "test": "Broth microdilution MIC and MBC, P. aeruginosa", "type": "cell-based", "conditions": "37° C., 72 h, MBC and MIC values identical", "procedure": "(§1) S. aureus and E. faecalis are Gram-positive pathogens, P. aeruginosa is a Gram-negative pathogen, and E. coli is a non-pathogenic Gram-negative organism.\n(§2) The broth microdilution for determining the MIC and MBC of antimicrobial compounds was performed as previously described in Wayne, supra. Briefly, all compounds were serially diluted and 100 μl of each dilution was added to microtiter plate wells in triplicate. Overnight cultures of bacterial cells were diluted to a final inoculum of approximately 5×10^6 cfu/mL, and 100 μl of this suspension was added to all wells yielded 5×10^5 cfu/well. Cell concentrations and viability were verified by serial dilution and plating for each experiment. […] The MBC was determined as the lowest concentration of compound at which there were no colonies growing on the plate.\n(§3) MIC values for the compounds of the invention were determined by the broth microdilution method as described herein. […] After microtiter plates were incubated and MICs determined, aliquots from each of the wells were placed on TSA plates and incubated to determine the MBC values for each of the compounds. The MBC was determined as the lowest concentration of compound at which there were no colonies growing on the plate. […] SDS was used for comparison in these studies."}, "[2]": {"test_system": "Entercoccus faecalis ATCC® 29212™", "conditions": "100 μM of compound, […]10^6 cfu/ml, room temperature, up to 72 h", "excerpt": "(§4) Bacterial strains Staphylococcus aureus subsp. aureus ATCC® 29213™, Entercoccus faecalis ATCC® 29212™, Escherichia coli ATCC® 25922™, and Pseudomonas aeruginosa strain Boston 41501 ATCC® 27853™ were obtained from the American type Culture Collection (ATCC, Manassas, Va., USA). S. aureus and E. faecalis are Gram-positive pathogens, P. aeruginosa is a Gram-negative pathogen, and E. coli is a non-pathogenic Gram-negative organism. All strains are reference strains for the Clinical and Laboratory Standards Institute (CLSI) for antimicrobial susceptibility testing of nonfastidious bacteria, and were grown in Mueller-Hinton broth at 37° C. as recommended (Wayne, Pa. National Committee for Clinical Laboratory Standards (2009) Methods for Dilution Antimicrobial Tests for Bacteria That Grow Aerobically—Approved Standard M07-A8).\n(§5) Compounds were added to the cultures to a final concentration of 100 μM, and tubes were incubated at room temperature. […] Data reported are times when no colonies were observed growing on plates after overnight incubation."}, "[3]": {"test_system": "Staphylococcus aureus subsp. aureus ATCC® 29213™", "conditions": "100 μM of compound, […]10^6 cfu/ml, room temperature, up to 72 h", "excerpt": "as §4, §5"}, "[4]": {"test_system": "Escherichia coli ATCC® 25922™", "conditions": "100 μM of compound; for time when all cells were killed, E. coli (G−): […]10^6 cfu/ml, room temperature, up to 72 h", "excerpt": "as §4, §5"}, "[5]": {"test_system": "Escherichia coli ATCC® 25922™", "test": "Broth microdilution MIC and MBC, E. coli", "type": "cell-based", "conditions": "37° C., 72 h, MBC and MIC values identical", "procedure": "as §1, §2, §3"}, "[6]": {"test_system": "Staphylococcus aureus subsp. aureus ATCC® 29213™", "test": "Broth microdilution MIC and MBC, S. aureus", "type": "cell-based", "conditions": "37° C., 72 h, MBC and MIC values identical", "procedure": "as §1, §2, §3"}, "[7]": {"test_system": "Entercoccus faecalis ATCC® 29212™", "test": "Broth microdilution MIC and MBC, E. faecalis", "type": "cell-based", "conditions": "37° C., 72 h, MBC and MIC values identical", "procedure": "as §1, §2, §3"}}}
{"compound": "1-hexadecyloxy-3,5-bis[(trimethlammonoum bromide)methyl]benzene [3,5-C16 (10)]", "values": [{"measurement": "MICs and MBCs, P. aeruginosa (G−)", "setting": "[1]", "result": ">63", "unit": "µM"}, {"measurement": "time when all cells were killed, E. faecalis (G+)", "setting": "[2]", "result": 0.25, "unit": "h"}, {"measurement": "time when all cells were killed, S. aureus (G+)", "setting": "[3]", "result": 0.25, "unit": "h"}, {"measurement": "time necessary to kill […]10^6 cfu/mL, E. coli", "setting": "[4]", "result": "≤ 15", "unit": "min"}, {"measurement": "time when all cells were killed, E. coli (G−)", "setting": "[4]", "result": 0.25, "unit": "h"}, {"measurement": "MICs and MBCs, E. coli (G−)", "setting": "[5]", "result": 63, "unit": "µM"}, {"measurement": "MICs and MBCs, S. aureus (G+)", "setting": "[6]", "result": 16, "unit": "µM"}, {"measurement": "MICs and MBCs, E. faecalis (G+)", "setting": "[7]", "result": 31, "unit": "µM"}]}
{"compound": "1-tetradecyloxy-2,5-bis(4,4′-bipyridinium)benzene, bis-bromide salt [2,5-C14dipyr (41)]", "values": [{"measurement": "MICs and MBCs, P. aeruginosa (G−)", "setting": "[1]", "result": 125, "unit": "µM"}, {"measurement": "MICs and MBCs, E. coli (G−)", "setting": "[5]", "result": 16, "unit": "µM"}, {"measurement": "MICs and MBCs, S. aureus (G+)", "setting": "[6]", "result": 16, "unit": "µM"}, {"measurement": "MICs and MBCs, E. faecalis (G+)", "setting": "[7]", "result": 31, "unit": "µM"}]}
{"compound": "CCCCCCCCCCCCOS(=O)(=O)[O-].[Na+]", "note": "[SDS (13), SDS, reference compound]", "values": [{"measurement": "MICs and MBCs, P. aeruginosa (G−)", "setting": "[1]", "result": ">500", "unit": "µM"}, {"measurement": "MICs and MBCs, E. coli (G−)", "setting": "[5]", "result": ">500", "unit": "µM"}, {"measurement": "MICs and MBCs, S. aureus (G+)", "setting": "[6]", "result": 250, "unit": "µM"}, {"measurement": "MICs and MBCs, E. faecalis (G+)", "setting": "[7]", "result": 500, "unit": "µM"}]}
{"compound": "[(2-tetradecyloxy-m-phenylene)dimethylene]bis[trimethylamonium bromide] [2,6-C14 (8)]", "values": [{"measurement": "MICs and MBCs, P. aeruginosa (G−)", "setting": "[1]", "result": 500, "unit": "µM"}, {"measurement": "time when all cells were killed, S. aureus (G+)", "setting": "[3]", "result": 48, "unit": "h"}, {"measurement": "MICs and MBCs, E. coli (G−)", "setting": "[5]", "result": 125, "unit": "µM"}, {"measurement": "MICs and MBCs, S. aureus (G+)", "setting": "[6]", "result": 16, "unit": "µM"}, {"measurement": "MICs and MBCs, E. faecalis (G+)", "setting": "[7]", "result": 50, "unit": "µM"}]}
{"compound": "[(2-tetradecyloxy-o-phenylene)dimethylene]bis[trimethylamonium bromide] [2,3-C14 (1)]", "values": [{"measurement": "MICs and MBCs, P. aeruginosa (G−)", "setting": "[1]", "result": 125, "unit": "µM"}, {"measurement": "time when all cells were killed, E. faecalis (G+)", "setting": "[2]", "result": 24, "unit": "h"}, {"measurement": "time when all cells were killed, S. aureus (G+)", "setting": "[3]", "result": 1, "unit": "h"}, {"measurement": "time when all cells were killed, E. coli (G−)", "setting": "[4]", "result": 0.5, "unit": "h"}, {"measurement": "MICs and MBCs, E. coli (G−)", "setting": "[5]", "result": 63, "unit": "µM"}, {"measurement": "MICs and MBCs, S. aureus (G+)", "setting": "[6]", "result": 6, "unit": "µM"}, {"measurement": "MICs and MBCs, E. faecalis (G+)", "setting": "[7]", "result": 31, "unit": "µM"}]}
{"compound": "[(5-tetradecyloxy-m-phenylene)dimethylene]bis[trimethylamonium bromide] [3,5-C14 (9)]", "values": [{"measurement": "MICs and MBCs, P. aeruginosa (G−)", "setting": "[1]", "result": ">63", "unit": "µM"}, {"measurement": "time when all cells were killed, E. faecalis (G+)", "setting": "[2]", "result": 1, "unit": "h"}, {"measurement": "time when all cells were killed, S. aureus (G+)", "setting": "[3]", "result": 1, "unit": "h"}, {"measurement": "time when all cells were killed, E. coli (G−)", "setting": "[4]", "result": 1, "unit": "h"}, {"measurement": "MICs and MBCs, E. coli (G−)", "setting": "[5]", "result": 31, "unit": "µM"}, {"measurement": "MICs and MBCs, S. aureus (G+)", "setting": "[6]", "result": 8, "unit": "µM"}, {"measurement": "MICs and MBCs, E. faecalis (G+)", "setting": "[7]", "result": 31, "unit": "µM"}]}
{"compound": "[(6-tetradecyloxy-m-phenylene)dimethylene]bis[trimethylamonium bromide] [2,4-C14 (2)]", "values": [{"measurement": "MICs and MBCs, P. aeruginosa (G−)", "setting": "[1]", "result": 125, "unit": "µM"}, {"measurement": "time when all cells were killed, E. faecalis (G+)", "setting": "[2]", "result": 2, "unit": "h"}, {"measurement": "time when all cells were killed, S. aureus (G+)", "setting": "[3]", "result": 1, "unit": "h"}, {"measurement": "time when all cells were killed, E. coli (G−)", "setting": "[4]", "result": 1, "unit": "h"}, {"measurement": "MICs and MBCs, E. coli (G−)", "setting": "[5]", "result": 31, "unit": "µM"}, {"measurement": "MICs and MBCs, S. aureus (G+)", "setting": "[6]", "result": 6, "unit": "µM"}, {"measurement": "MICs and MBCs, E. faecalis (G+)", "setting": "[7]", "result": 16, "unit": "µM"}]}
